One may read the IC50 as the concentration that gives 50% inhibition. Low readings indicate higher potency, high ones lower potency.

18 compounds from US9499538B2, “Estrogen receptor modulators and uses thereof” (Seragon Pharmaceuticals, Inc., priority 2012, dated 2016) can be followed below.

Molecules are shown by their SMILES.

The target in one experiment is T1, ER-α in MCF-7 cells (Homo sapiens, UniProt P03372).
T1 construct: endogenous in cells; host or cells: MCF-7
T1 sequence (P03372 1-595): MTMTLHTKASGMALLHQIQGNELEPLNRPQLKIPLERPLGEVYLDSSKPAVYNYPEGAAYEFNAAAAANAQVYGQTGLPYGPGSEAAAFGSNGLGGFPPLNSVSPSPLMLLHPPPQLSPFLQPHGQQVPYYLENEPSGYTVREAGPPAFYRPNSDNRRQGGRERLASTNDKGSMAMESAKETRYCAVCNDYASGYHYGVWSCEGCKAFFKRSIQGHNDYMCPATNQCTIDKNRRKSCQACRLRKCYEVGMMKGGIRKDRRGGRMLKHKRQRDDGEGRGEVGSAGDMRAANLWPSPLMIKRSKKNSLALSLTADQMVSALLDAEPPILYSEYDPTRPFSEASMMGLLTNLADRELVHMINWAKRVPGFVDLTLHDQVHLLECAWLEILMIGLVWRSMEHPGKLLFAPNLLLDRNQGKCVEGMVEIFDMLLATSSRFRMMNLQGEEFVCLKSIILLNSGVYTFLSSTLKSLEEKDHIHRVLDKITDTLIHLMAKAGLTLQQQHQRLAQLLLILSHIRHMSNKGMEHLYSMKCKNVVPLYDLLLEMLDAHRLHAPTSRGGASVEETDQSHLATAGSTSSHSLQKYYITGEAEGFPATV
Briefly: Breast Cancer Cell ER-α In Cell Western Assay (SP1). The experiment is classed as cell-based. The settings on record: 4 or 24 hr post compound addition; for Emax: MCF7, SP1 antibody, read-out: ER-α In Cell Western Assay (SP1) Max Response; for DC50: SP1 antibody, read-out: ER-α In Cell Western Assay (SP1) IC50. The gist of the method:
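MCF-7 cells in charcoal-stripped FBS medium, treated with 11-point semilog dilutions (0.3–0.000003 μM final) for 4 or 24 h. Fixed cells immunostained with SP1 antibody (800 nm) and DRAQ5 DNA (700 nm); ER/DNA ratio expressed as % of untreated cells.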

The subject of the next experiment is MCF-7 cells. Briefly: Breast Cancer Cell Viability Assays (MCF-7, CellTiter-Glo). Format: cell-based. The conditions noted are these: 5 days' compound exposure; for IC50: Homo sapiens, MCF7, 120 h. The gist of the method: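 MCF-7 cells (320/well, RPMI with 10% FBS) exposed for 5 days to an eleven-point semilog series, 0.3–0.000003 μM final. Viability read by CellTiter-Glo luminescence, expressed as background-corrected percent of untreated cells.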
For orientation: In ATP-based viability assays light output follows the ATP content of the culture.

Take `N#Cc1c(/C(=C(/c2ccc(F)cc2Cl)C2CCC2)c2ccc(/C=C/C(=O)O)cc2)ccc2[nH]nc(F)c12` [Example 225, (E)-3-(4-((E)-2-(2-Chloro-4-fluorophenyl)-1-(4-cyano-3-fluoro-1H-indazol-5-yl)-2-cyclobutylvinyl)phenyl)acrylic acid]: at ER-α in MCF-7 cells, the Emax is no less than 40% and the DC50 is no more than 100 nM. Further, in the experiment with MCF-7 cells, the “MCF7 Viability Assay Max Response” value is “++ (++ = a single % value ≧ 40%)” and the 50% inhibitory concentration (IC50) is no more than 100 nM.

As to `N#Cc1ccc(/C(=C(\c2ccc(/C=C/C(=O)O)cc2)c2ccc3nccn3c2)C2CCC2)c(Cl)c1` [Example 226, (E)-3-(4-((E)-2-(2-Chloro-4-cyanophenyl)-2-cyclobutyl-1-(imidazo[1,2-a]pyridin-6-yl)vinyl)phenyl)acrylic acid], on ER-α in MCF-7 cells, the Emax was no less than 40% and the DC50 was no more than 100 nM. For the same compound, in the experiment with MCF-7 cells, the “MCF7 Viability Assay Max Response” value is reported as “++ (++ = a single % value ≧ 40%)” and the 50% inhibitory concentration (IC50) is no more than 100 nM.

Take `N#Cc1cc(Cl)ccc1/C(=C(\c1ccc(/C=C/C(=O)O)cc1)c1ccc2nccn2c1)C1CCC1` [Example 227, (E)-3-(4-((E)-2-(4-Chloro-2-cyanophenyl)-2-cyclobutyl-1-(imidazo[1,2-a]pyridin-6-yl)vinyl)phenyl)acrylic acid]: on ER-α in MCF-7 cells, the Emax is no less than 40% and the DC50 was no more than 100 nM. Also, in the experiment with MCF-7 cells, the “MCF7 Viability Assay Max Response” value was “++ (++ = a single % value ≧ 40%)” and the half-inhibitory concentration (IC50) is no more than 100 nM.

Regarding `COc1ccc(/C(=C(\c2ccc(/C=C/C(=O)O)cc2)c2ccc3nccn3c2)C2CCC2)c(Cl)c1` [Example 228, (E)-3-(4-((E)-2-(2-Chloro-4-methoxyphenyl)-2-cyclobutyl-1-(imidazo[1,2-a]pyridin-6-yl)vinyl)phenyl)acrylic acid], on ER-α in MCF-7 cells, the Emax is no less than 40% and the DC50 was no more than 100 nM. Besides, in the experiment on MCF-7 cells, the “MCF7 Viability Assay Max Response” value was “++ (++ = a single % value ≧ 40%)” and the half-maximal inhibitory concentration (IC50) was no more than 100 nM.

As to `COc1ccc(/C(=C(\c2ccc(/C=C/C(=O)O)cc2)c2ccc3nccn3c2)C2CCC2)c(C)c1` [Example 229, (E)-3-(4-((E)-2-Cyclobutyl-1-(imidazo[1,2-a]pyridin-6-yl)-2-(4-methoxy-2-methylphenyl)vinyl)phenyl)acrylic acid], on ER-α in MCF-7 cells, the Emax is no less than 40% and the DC50 is no more than 100 nM. In the experiment on MCF-7 cells, the “MCF7 Viability Assay Max Response” value was “++ (++ = a single % value ≧ 40%)” and the IC50 was no more than 100 nM.

Consider `CCOc1ccc(/C(=C(\c2ccc(/C=C/C(=O)O)cc2)c2ccc3[nH]nc(F)c3c2)C2CCC2)c(Cl)c1` [Example 230, (E)-3-(4-((E)-2-(2-Chloro-4-ethoxyphenyl)-2-cyclobutyl-1-(3-fluoro-1H-indazol-5-yl)vinyl)phenyl)acrylic acid], for which, on ER-α in MCF-7 cells, the Emax was no less than 40% and the DC50 was no more than 100 nM. In addition, in the experiment with MCF-7 cells, the “MCF7 Viability Assay Max Response” value is “++ (++ = a single % value ≧ 40%)” and the IC50 was no more than 100 nM.

Take `O=C(O)/C=C/c1ccc(/C(=C(\c2ccc(C(F)(F)F)cc2Cl)C2CCC2)c2ccc3nccn3c2)cc1` [Example 231, (E)-3-(4-((E)-2-(2-Chloro-4-(trifluoromethyl)phenyl)-2-cyclobutyl-1-(imidazo[1,2-a]pyridin-6-yl)vinyl)phenyl)acrylic acid]: on ER-α in MCF-7 cells, the Emax was no less than 40% and the DC50 was no more than 100 nM. In the experiment on MCF-7 cells, the “MCF7 Viability Assay Max Response” value is listed as “++ (++ = a single % value ≧ 40%)” and the IC50 was no more than 100 nM.

In the case of `COc1ccc(/C(=C(\c2ccc(/C=C/C(=O)O)cc2)c2ccc3scnc3c2)C2CCC2)c(Cl)c1` [Example 232, (E)-3-(4-((E)-1-(Benzo[d]thiazol-5-yl)-2-(2-chloro-4-methoxyphenyl)-2-cyclobutylvinyl)phenyl)acrylic acid], on ER-α in MCF-7 cells, the Emax was no less than 40% and the DC50 is no more than 100 nM. In the experiment on MCF-7 cells, the “MCF7 Viability Assay Max Response” value is listed as “++ (++ = a single % value ≧ 40%)” and the IC50 was no more than 100 nM.

Take `O=C(O)/C=C/c1ccc(/C(=C(\c2ccc(CO)cc2Cl)C2CCC2)c2ccc3scnc3c2)cc1` [Example 233, (E)-3-(4-((E)-1-(Benzo[d]thiazol-5-yl)-2-(2-chloro-4-(hydroxymethyl)phenyl)-2-cyclobutylvinyl)phenyl)acrylic acid]: at ER-α in MCF-7 cells, the Emax is no less than 40% and the DC50 is no more than 100 nM. Moreover, in the experiment with MCF-7 cells, the “MCF7 Viability Assay Max Response” value is “++ (++ = a single % value ≧ 40%)” and the IC50 was no more than 100 nM.

Take `O=C(O)/C=C/c1ccc(/C(=C(\c2ccccc2Cl)C2CCC2)c2ccc3scnc3c2)cc1` [Example 234, (E)-3-(4-((E)-1-(Benzo[d]thiazol-5-yl)-2-(2-chlorophenyl)-2-cyclobutylvinyl)phenyl)acrylic acid]: at ER-α in MCF-7 cells, the Emax was no less than 40% and the DC50 is no more than 100 nM. In the experiment with MCF-7 cells, the “MCF7 Viability Assay Max Response” value was “++ (++ = a single % value ≧ 40%)” and the IC50 was no more than 100 nM.

Turning to `O=C(O)/C=C/c1ccc(/C(=C(\c2cccc(F)c2Cl)C2CCC2)c2ccc3scnc3c2)cc1` [Example 235, (E)-3-(4-((E)-1-(Benzo[d]thiazol-5-yl)-2-(2-chloro-3-fluorophenyl)-2-cyclobutylvinyl)phenyl)acrylic acid], on ER-α in MCF-7 cells, the Emax was no less than 40% and the DC50 is no more than 100 nM. Moreover, in the experiment with MCF-7 cells, the “MCF7 Viability Assay Max Response” value is recorded as “++ (++ = a single % value ≧ 40%)” and the IC50 was no more than 100 nM.

`O=C(O)/C=C/c1ccc(/C(=C(\c2cc(F)ccc2Cl)C2CCC2)c2ccc3scnc3c2)cc1` [Example 236, (E)-3-(4-((E)-1-(Benzo[d]thiazol-5-yl)-2-(2-chloro-5-fluorophenyl)-2-cyclobutylvinyl)phenyl)acrylic acid]: at ER-α in MCF-7 cells, the Emax is no less than 40% and the DC50 is no more than 100 nM. In addition, in the experiment with MCF-7 cells, the “MCF7 Viability Assay Max Response” value is listed as “++ (++ = a single % value ≧ 40%)” and the IC50 is no more than 100 nM.

For `Cc1cc(CO)ccc1/C(=C(\c1ccc(/C=C/C(=O)O)cc1)c1ccc2scnc2c1)C1CCC1` [Example 237, (E)-3-(4-((E)-1-(Benzo[d]thiazol-5-yl)-2-cyclobutyl-2-(4-(hydroxymethyl)-2-methylphenyl)vinyl)phenyl)acrylic acid], at ER-α in MCF-7 cells, the Emax was no less than 40% and the DC50 was no more than 100 nM. For the same compound, in the experiment on MCF-7 cells, the “MCF7 Viability Assay Max Response” value is given as “++ (++ = a single % value ≧ 40%)” and the IC50 is no more than 100 nM.

With `Cc1ccccc1/C(=C(\c1ccc(/C=C/C(=O)O)cc1)c1ccc2scnc2c1)C1CCC1` [Example 238, (E)-3-(4-((E)-1-(Benzo[d]thiazol-5-yl)-2-cyclobutyl-2-(o-tolyl)vinyl)phenyl)acrylic acid], on ER-α in MCF-7 cells, the Emax is no less than 40% and the DC50 is no more than 100 nM. Further, in the experiment on MCF-7 cells, the “MCF7 Viability Assay Max Response” value is on record as “++ (++ = a single % value ≧ 40%)” and the concentration for half-maximal inhibition (IC50) is no more than 100 nM.

For `Cc1cc(F)ccc1/C(=C(\c1ccc(/C=C/C(=O)O)cc1)c1ccc2scnc2c1)C1CCC1` [Example 239, (E)-3-(4-((E)-1-(Benzo[d]thiazol-5-yl)-2-cyclobutyl-2-(4-fluoro-2-methylphenyl)vinyl)phenyl)acrylic acid], on ER-α in MCF-7 cells, the Emax was no less than 40% and the DC50 was no more than 100 nM. Besides, in the experiment on MCF-7 cells, the “MCF7 Viability Assay Max Response” value is “++ (++ = a single % value ≧ 40%)” and the IC50 is no more than 100 nM.

For `COc1ccc(/C(=C(\c2ccc(/C=C/C(=O)O)cc2)c2ccc3scnc3c2)C2CCC2)c(C)c1` [Example 240, (E)-3-(4-((E)-1-(Benzo[d]thiazol-5-yl)-2-cyclobutyl-2-(4-methoxy-2-methylphenyl)vinyl)phenyl)acrylic acid], at ER-α in MCF-7 cells, the Emax is no less than 40% and the DC50 was no more than 100 nM. Besides, in the experiment on MCF-7 cells, the “MCF7 Viability Assay Max Response” value is “++ (++ = a single % value ≧ 40%)” and the IC50 is no more than 100 nM.

In the case of `O=C(O)/C=C/c1ccc(/C(=C(\c2ccc(OC(F)(F)F)cc2Cl)C2CCC2)c2ccc3scnc3c2)cc1` [Example 241, (E)-3-(4-((E)-1-(Benzo[d]thiazol-5-yl)-2-(2-chloro-4-(trifluoromethoxy)phenyl)-2-cyclobutylvinyl)phenyl)acrylic acid], on ER-α in MCF-7 cells, the Emax was no less than 40% and the DC50 is no more than 100 nM. In the experiment with MCF-7 cells, the “MCF7 Viability Assay Max Response” value is reported as “++ (++ = a single % value ≧ 40%)” and the half-maximal inhibitory concentration (IC50) is no more than 100 nM.

As for `N#Cc1cc(C(F)(F)F)ccc1/C(=C(\c1ccc(/C=C/C(=O)O)cc1)c1ccc2scnc2c1)C1CCC1` [Example 242, (E)-3-(4-((E)-1-(Benzo[d]thiazol-5-yl)-2-(2-cyano-4-(trifluoromethyl)phenyl)-2-cyclobutylvinyl)phenyl)acrylic acid], on ER-α in MCF-7 cells, the Emax was no less than 40% and the DC50 was no more than 100 nM. Moreover, in the experiment on MCF-7 cells, the “MCF7 Viability Assay Max Response” value is reported as “++ (++ = a single % value ≧ 40%)” and the IC50 was no more than 100 nM.
